{"source": "patent US20080317769A1", "about": "“Vaccine Composition Comprising Alpha-Galactosylceramide as an Adjuvant For Intranasal Administration” (priority 2005, published 2008)", "key": {"[1]": {"test_system": "OVA257-264 pulsed CFSE^high spleen cells", "test": "In vivo CTL assay: specific lysis of OVA257-264 pulsed CFSE-high cells by FACS, C57BL/6 mice", "conditions": "all αGalCer dose groups + OVA intranasal, vs vehicle alone or OVA alone, dose-dependent", "method": "Spleen cells were separated from naive C57BL/6 mice, which were pulsed with 1 μM of OVA257-264 at 37° C. for 90 minutes. The pulsed cells were labeled with 20 μM of CFSE (Molecular Probes, USA) at 37° C. for 15 minutes, resulting in OVA257-264 pulsed CFSE^high cells. In the meantime, the unpulsed cells were labeled with 2 μM of CFSE (Molecular Probes, USA) at 37° C. for 15 minutes, resulting in the OVA257-264 unpulsed CFSE^low cells. The equal numbers of peptide-pulsed CFSE^high cells and unpulsed CFSE^low cells were mixed, which were intravenously injected to mice at the number of 2×10^7 cells one week after the final immunization. 24 hours later, specific lysis of peptide-pulsed CFSE^high cell was investigated by using FACS in spleen, mesenteric lymph node (MLN) and cervical lymph node (CLN)."}, "[2]": {"test_system": "IFN-γ-producing CD8+ T cells", "test": "IFN-γ-producing CD8+ T cells by intracellular cytokine staining, Balb/c mice, OVA", "format": "in vivo", "conditions": "splenocytes cultured 4 days with 500 μg/ml OVA, with the increase of αGalCer concentration", "method": "OVA dose not include an epitope peptide binding to a MHC class I molecule in Balb/c mouse. So, to investigate cytotoxic activity induced by αGalCer adjuvant in the Balb/c mouse, the numbers of IFN-γ-producing CD8+ T cells were measured (FIG. 11). Particularly, the cells (2×10^6 cells/ml) were cultured for 4 days with 500 μg/ml of OVA, to which 1 μl/ml of GolgiPug™ (BD Pharmigen, USA) was added 6 hours before termination of the culture. Then, staining was performed by using FITC-conjugated CD3 mAb (Clone 145-2C11, Biolegend Inc, USA), PE-conjugated CD8 mAb (Clone 53-6.7, Biolegend Inc, USA) and APC-conjugated IFN-γ mAb (Clone XMG1.2, Biolegend Inc, USA). Intracellular staining was performed with BD Cytofix/Cytoperm Plus™ (BD Pharmigen, USA) according to the manufacturer's instruction, and the stained cells were analyzed with FACSCalibur (BD Bioscience, USA) and CellQuest software (BD Bioscience, USA)."}, "[3]": {"test_system": "influenza virus A/PR/8/34", "parameters": "species or system Balb/c mice", "conditions": "mouse, in vivo"}, "[4]": {"test_system": "β-galactosidase-specific antibody response", "test": "β-galactosidase-specific antibody response after intranasal Ad-LacZ with αGalCer", "format": "in vivo", "conditions": "Balb/c mice; 10^6 pfu Ad-LacZ + 0.125 μg αGalCer intranasal, twice at two-week intervals; vs vehicle alone or Ad-LacZ alone", "method": "Balb/c mice were immunized with 10^6 pfu of replication-deficient live adenovirus harboring beta-galactosidase gene (Ad-LacZ) (Viromed, Korea) alone or together with 0.125 μg of αGalCer by the intranasal administration, two times at two-week intervals. One week after the final immunization, the nasal wash, the lung wash and serum were separated, by the same manner as described in Example 1, to measure β-galactosidase-specific antibody response. In addition, to measure CTL activity, spleen cells were stimulated by 2.5 μg/mL of β-galactosidase for 5 days and IFN-γ-producing CD8+ T cells were examined by intracellular cytokine staining according to the procedure as described in Example <4-2>."}, "[5]": {"test_system": "OT1 cells (OVA specific CD8+ T cells)", "test": "CD25 surface expression of adoptively transferred CFSE-labeled OT1 cells in CLN (FACS)", "format": "in vivo, mouse", "conditions": "100 μg OVA + 2.0 μg αGalCer intranasal vs OVA alone; 48 hours later", "method": "To investigate the effect of αGalCer on the activation of T cells, the surface expression of CD25 in CFSE-labeled OT1 cells (OVA specific CD8+ T cells), which were adoptively transferred into syngenic mice, was measured. OT1 cells were separated from OT1 mouse by using CD8α (Ly-2) magnetic bead (Mitenyl Biotech), which were labeled with 10 μM of CFSE at 37° C. for 15 minutes and then transferred intravenously into a syngenic mouse. One day after the adoptive transfer, the intranasal administration of 100 μg of OVA alone or together with 2.0 μg of αGalCer was performed thereto. 48 hours later, the expression of CD25 in CLN was investigated with FACS."}, "[6]": {"test_system": "OT1 cells (OVA specific CD8+ T cells)", "test": "Intracellular IL-2 and IFN-γ of OT1 cells after OVA257-264 peptide stimulation", "format": "in vivo, mouse", "conditions": "OVA + 2.0 μg αGalCer intranasal vs OVA alone; 5 μM OVA257-264 peptide for 6 hours", "method": "To confirm whether the activated T-cells were differentiated into fully functional CTL, 2×10^6/ml of cells were further stimulated with 5 μM of OVA257-264 peptide for 6 hours, by the same manner as described in Example 4, and then intracellular IL-2 and IFN-γ levels were measured by using APC-conjugated IL-2 (Clone JES6-5H4, Biolegend Inc., USA) and APC-conjugated IFN-γ mAb (Clone XMG1.2 Biolegend Inc., USA)."}, "[7]": {"test_system": "inactivated influenza virus A/PR/8/34 (PR8)", "test": "Humoral immune response after intranasal formalin-inactivated PR8 virus with αGalCer", "format": "in vivo", "conditions": "Balb/c mice", "method": "(§1) To examine the role of αGalCer as an adjuvant of a killed virus, influenza virus A/PR/8/34 (PR8), which was inactivated with formalin, was used as an antigen to examine the anti-virus immune response. Balb/c mice were immunized with indicated amounts (1 μg, 10 μg) of inactivated PR8 alone or together with αGalCer by the intranasal administration twice at two-week intervals. Two weeks after the final immunization, the mice were sacrificed and following experiments were performed.\nThe nasal wash, the lung wash and serum were separated from the sacrificed mice and the antibody productions were observed therein by the same manner as described in Example 1."}, "[8]": {"test_system": "immune cells from spleen and CLN", "test": "Immune cell proliferation, [3H]-thymidine incorporation of spleen and CLN cells cultured with inactivated PR8", "format": "in vivo", "conditions": "Balb/c mice; inactivated PR8 + αGalCer intranasal; cells cultured with inactivated PR8 for 3 days, [3H]-thymidine 18 hrs", "method": "as §1\nSingle cells separated from the spleen and CLN of the sacrificed mice were cultured with inactivated PR8 for 3 days and [^3H]-thymidine was added and further incubated for 18 hrs. As cells were being proliferated, the level of incorporated [^3H]-thymidine was measured by LSC."}, "[9]": {"test_system": "IFN-γ and IL-4 production", "test": "IFN-γ and IL-4 production of spleen and CLN cells cultured with inactive PR8", "format": "in vivo", "conditions": "Balb/c mice; inactivated PR8 + αGalCer intranasal; cells cultured with inactive PR8 for 5 days", "method": "as §1\nThe supernatants were obtained and the levels of IFN-γ and IL-4 therein were measured by the same manner as described in Example 2."}, "[10]": {"conditions": "rodents and apes; cited from earlier work"}, "[11]": {"conditions": "mouse treated with 2200 μg/Kg of αGalCer; cited from earlier work"}}, "note": "Entries after “also recorded” stand apart in the source; their conditions may differ."}
{"smiles": "CCCCCCCCCCCCCCCCCCCCCCCCCC(=O)N[C@@H](CO[C@H]1O[C@H](CO)[C@H](O)[C@H](O)[C@H]1O)[C@H](O)[C@H](O)CCCCCCCCCCCCCC", "note": "[αGalCer, alpha-galactosylceramide]", "values": [{"measurement": "CTL cytotoxicity (specific lysis) in spleen, MLN and CLN", "setting": "[1]", "result": "dose-dependent lytic activity"}, {"measurement": "CTL cytotoxicity (specific lysis) in spleen, MLN and CLN", "setting": "[1]; listed as α-GalCer", "result": "higher cytotoxicity"}, {"measurement": "numbers of IFN-γ-producing CD8+ T cells, relation to αGalCer concentration", "setting": "[2]", "result": "decreased"}, {"measurement": "weight loss recovery after virus infection", "setting": "[3]", "result": "rapid rate of weight loss recovery"}, {"measurement": "β-galactosidase-specific IgG antibody in serum", "setting": "[4]", "result": "higher levels"}, {"measurement": "β-galactosidase-specific S-IgA antibody in the nasal wash and the lung wash", "setting": "[4]", "result": "higher levels"}, {"measurement": "level of OT1 cells expressing CD25 in CLN", "setting": "[5]", "result": "higher"}, {"measurement": "levels of OT1 cells secreting IL-2 and IFN-γ", "setting": "[6]", "result": "higher"}, {"measurement": "antigen-specific systemic IgG in serum", "setting": "[7]; inactivated PR8 (1 μg, 10 μg) + αGalCer intranasal twice at two-week intervals, vs inactivated PR8 alone", "result": "significantly higher; also recorded: increased"}, {"measurement": "mucosal S-IgA in the nasal wash and the lung wash", "setting": "[7]; inactivated PR8 + αGalCer intranasal twice at two-week intervals", "result": "remarkably increased"}, {"measurement": "proliferation of immune cells from spleen and CLN", "setting": "[8]", "result": "significantly increased"}, {"measurement": "levels of Th1 cytokine IFN-γ and Th2 cytokine IL-4 in spleen and CLN", "setting": "[9]", "result": "significantly increased"}, {"measurement": "toxicity", "setting": "[10]", "result": "seems not to induce toxicity"}, {"measurement": "side effects", "setting": "[11]", "result": "no side effects"}]}
